Laboratory results as given in patent US10501479B2, “Benzenesulfonyl-asymmetric ureas and medical uses thereof” (HELSINN HEALTHCARE SA, priority 2016, dated 2019).
Values joined by “and” are separate entries in the source; they are usually repeats but may differ in a detail not shown here. Equal values may be shown once.

Assays:
[1] = target: T1, recombinant human ghrelin receptor (HEK293/GRLN) (Homo sapiens, UniProt Q92847); test: Ghrelin inverse agonist potency (EC50) with IP-1 (IP-One HTRF) assay; type: cell-based; settings: inverse agonist potency, IP-1 assay; read-out: EC50 (Activity)
T1 construct: expressed in transfected cells
How it was run: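 HEK293/GRLN cells were seeded 18-22 hours before the test, then exposed to compound in stimulation buffer for 1 hour at 37° C, 5% CO2. IP-1 was detected by IP-One HTRF (IP1-d2 plus Tb-cryptate, 1 hour RT), reading 620 and 665 nm; the inverse agonist EC50 was derived from this.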

[2] = target: T2, GHSR-1a (HEK293/GHSR1a cell line) (Homo sapiens, UniProt Q92847); test: Ghrelin antagonist potency (IC50) with calcium FLIPR assay, ghrelin 10 nM; type: cell-based; settings: ghrelin antagonist potency, read-out: IC50 (Activity)
T2 construct: expressed in transfected cells; host or cells: HEK293/GHSR1a cell line
How it was run: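 Potency values were estimated from dose-response curves of relative fluorescence, with calcium followed for 2 minutes after additions at t=20 sec. Agonism was tested with compound alone. Antagonism was tested with compound plus 10 nM ghrelin and scored as a reduction of the ghrelin signal.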

[3] = Metabolic stability in human liver microsomes; type: in vitro ADME
How it was run: (§1)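 Depletion of test compound in NADPH-fortified liver microsomes (pH 7.4 phosphate buffer, 37 °C) is followed over 90 min. Remaining compound in quenched samples is quantified by LC-MS/MS against the time-zero level.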

[4] = Metabolic stability in mouse liver microsomes; type: in vitro ADME
How it was run: as §1

[5] = Animal PK study in mouse via i.v., p.o. and s.c. administration; type: in vivo; settings: for PK CLiv / PK Vdiv / PK t1/2iv: i.v.; for PK CLpo / PK Vdpo / PK t1/2po: p.o.
How it was run: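 Single i.v. (tail vein), s.c. (neck scruff) or p.o. (gavage) dose to mice or rats; oral vehicle 1–5% DMSO/0.5% methylcellulose, i.v./s.c. vehicle 1–5% DMSO in 20% HP-β-cyclodextrin. Plasma sampled 0.083 (i.v./s.c.) or 0.25 to 24 h, analyzed by LC-MS/MS.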

male C57BL/6J mice = test: Food intake test in mouse (GHSR1a inverse agonists), cumulative food intake at 1, 2, 4, 8 and 24 hrs; type: in vivo; settings: 30 mg/kg po fasted mice
Procedure: Evaluation of Inverse Agonist on Food Intake Test in Mouse:
Male C57BL/6J mice, 18-22 g body weight, were fasted overnight (16 h before compound administration) and placed in a regular light dark cycle (6:00-18:00 light/18:00-6:00 dark). After 1 wk acclimation, animals were sorted into two groups (n=6 each, 2 per cage) based on body weight. Animals in group one were be treated with vehicle and animals in group 2 were treated with the test agent (n=6 for each group). The cumulative food intake was evaluated at 1, 2, 4, 8 and 24 hrs after drug or vehicle treatment. Food intake was measured by subtracting uneaten food from the initial premeasured food.
Food Intake Study—Evaluation of GHSR1a inverse agonists on Food Intake Test in Mouse:
Twelve male C57BL/6J mice, weighing 18-22 g each, were fasted overnight (16 h before compound administration) and placed in a regular light dark cycle (6:00-18:00 light/18:00-6:00 dark). After 1 week acclimation, animals were sorted into two groups (n=6 each, 2 per cage) based on body weight. Animals in group one were treated with carrier minus the test compound. (control group) and animals in group 2 were treated with carrier with the test compound (experimental group). The cumulative food intake was evaluated at 1, 2, 4, 8 and 24 hrs after experimental or control treatment. Food intake was measured by subtracting uneaten food from the initial premeasured food.

[6] = Plasma protein binding (PPB), human; type: in vitro ADME; settings: read-out: PPB (H)
[7] = Plasma protein binding (PPB), mouse; type: in vitro ADME
[8] = Plasma protein binding (PPB), rat; type: in vitro ADME; settings: read-out: PPB (R) (converted)
[9] = Plasma protein binding (PPB), dog; type: in vitro ADME; settings: read-out: PPB (D) (converted)
[10] = Metabolic stability in dog liver microsomes; type: in vitro ADME
Procedure: Metabolic Stability Study
The metabolic stability of compounds in human, dog, rat and mouse liver microsomes was performed according the experimental conditions reported below:
• a) Prepare the following 5 stock solutions: • 1. Test compound stock solutions: dilute 10 mM solution of dextromethorphan (Dtr) in DMSO, 10 mM solution of diphenhydramine (DPA) in DMSO, 10 mM solution of omeprazole (Ome) in DMSO, 10 mM solution of verapamil (Ver) in DMSO, and 10 mM of an inverse agonist compound in DMSO to 0.25 mM solution each with acetonitrile/water (70/30). • 2. Buffer: 100 mM potassium phosphate Buffer (PBS) at pH 7.4 • 3. Liver microsomes (20 mg/ml): Thaw in 37° C. water bath quickly • 4. 2000 μL: of NADPH regenerating system (1.3 mM). Place this system on ice before use:
• 5. […] The test compound concentration in the wells, measured by LC-MS/MS, represents the concentration at time=0. • f) To determine the test compound concentration when t≠0, pre-incubate the NADPH regenerating system and the incubation plate containing the remaining 320 μL of incubation mixture (microsomes protein and test compound) for 5 minutes at 37° C. • g) Start the incubation reaction by adding 80 μL NADPH regenerating system to each well containing the remaining 320 μL incubation mixture. • h) After 10 min., 30 min., and 90 min. of incubation at 37° C., transfer 100 μL of the incubation mixture (microsomes protein, test compound, and NADPH) into the wells of a stop plate pre-filled with 300 μL of the cold quench solution. Shake well. • i) Centrifuge the stop plate at 5000×g for 10 minutes. Collect and dilute the supernatant 3 times with distilled water. Sample and analyze the test compound concentration for all the wells by LC-MS/MS. Animal PK Studies via i.v. (intravenous), p.o. (orally) and s.c. (subcutaneous) administrations

[11] = Metabolic stability in rat liver microsomes; type: in vitro ADME
How it was run: as §1

hERG = hERG (Homo sapiens, UniProt Q12809); test: hERG inhibition
[12] = Animal PK study in rat via i.v., p.o. and s.c. administration; type: in vivo; settings: rat
[13] = Animal PK study in dog (i.v., p.o.); type: in vivo; settings: for PK CLiv / PK Vdiv / PK t1/2iv: i.v.; for PK CLpo / PK Vdpo / PK t1/2po: p.o.

hERG, sequence (Q12809 whole entry): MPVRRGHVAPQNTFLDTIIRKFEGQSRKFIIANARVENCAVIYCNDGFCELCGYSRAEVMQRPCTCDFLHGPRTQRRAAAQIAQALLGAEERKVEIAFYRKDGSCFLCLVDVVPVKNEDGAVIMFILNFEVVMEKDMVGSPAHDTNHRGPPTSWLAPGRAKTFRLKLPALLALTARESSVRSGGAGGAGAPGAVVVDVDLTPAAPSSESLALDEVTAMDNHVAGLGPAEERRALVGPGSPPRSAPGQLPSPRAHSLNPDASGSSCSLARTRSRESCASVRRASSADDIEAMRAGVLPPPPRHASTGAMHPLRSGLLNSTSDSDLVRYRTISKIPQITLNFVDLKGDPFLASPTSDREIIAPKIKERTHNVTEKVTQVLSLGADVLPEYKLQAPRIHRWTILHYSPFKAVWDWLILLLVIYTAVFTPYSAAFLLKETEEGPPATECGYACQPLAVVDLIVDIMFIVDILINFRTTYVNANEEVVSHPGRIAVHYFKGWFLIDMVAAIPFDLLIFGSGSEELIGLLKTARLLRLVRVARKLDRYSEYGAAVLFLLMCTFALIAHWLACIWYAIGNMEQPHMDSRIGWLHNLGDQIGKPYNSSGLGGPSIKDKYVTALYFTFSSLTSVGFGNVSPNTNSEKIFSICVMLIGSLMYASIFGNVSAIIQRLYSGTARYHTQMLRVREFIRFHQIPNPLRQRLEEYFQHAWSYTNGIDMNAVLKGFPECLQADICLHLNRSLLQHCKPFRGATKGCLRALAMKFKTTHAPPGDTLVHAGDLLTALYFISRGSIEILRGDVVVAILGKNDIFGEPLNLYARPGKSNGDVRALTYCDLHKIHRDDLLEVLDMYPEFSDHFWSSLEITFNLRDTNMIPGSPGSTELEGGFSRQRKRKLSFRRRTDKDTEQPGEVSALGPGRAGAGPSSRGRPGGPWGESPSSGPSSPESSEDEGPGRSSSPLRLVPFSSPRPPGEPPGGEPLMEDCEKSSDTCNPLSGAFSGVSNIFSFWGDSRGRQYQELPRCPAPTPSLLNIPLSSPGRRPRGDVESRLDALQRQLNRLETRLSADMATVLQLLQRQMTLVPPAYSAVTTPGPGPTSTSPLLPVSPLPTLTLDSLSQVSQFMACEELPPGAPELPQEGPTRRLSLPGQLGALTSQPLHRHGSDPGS
T2 sequence (Q92847 whole entry): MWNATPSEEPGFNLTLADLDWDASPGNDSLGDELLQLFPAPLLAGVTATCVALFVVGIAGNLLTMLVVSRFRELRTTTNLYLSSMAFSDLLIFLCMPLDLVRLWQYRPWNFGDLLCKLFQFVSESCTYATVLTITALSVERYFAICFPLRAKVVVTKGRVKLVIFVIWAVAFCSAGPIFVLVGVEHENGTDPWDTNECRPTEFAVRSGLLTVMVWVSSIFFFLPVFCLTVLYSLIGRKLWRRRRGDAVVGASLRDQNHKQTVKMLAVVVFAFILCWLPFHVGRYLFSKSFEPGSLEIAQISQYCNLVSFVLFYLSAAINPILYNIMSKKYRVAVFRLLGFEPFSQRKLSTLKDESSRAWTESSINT
T1 sequence (Q92847 whole entry): as above

Structure (SMILES) | EC50 [1] | IC50 [2] [µM] | Metabolic Stability Study H = human [3] | Metabolic Stability Study M = mouse [4] | PK F [5] | PK CLiv [5] [L/h/kg] | PK Vdiv [5] [L/kg] | PK t1/2iv [5] | PK CLpo [5] | PK Vdpo [5] | PK t1/2po [5] | fraction unbound [6] | fraction unbound [7] | fraction unbound [8] | fraction unbound [9] | hERG inh (hERG) [µM] | further results
C[C@H](NC(=O)Nc1ccc(S(=O)(=O)Cc2ccc(CC(C)(C)N)cc2)cc1)c1cccc(Cl)c1Cl [H0969, (S)-1-(4-((4-(2-amino-2-methylpropyl)benzyl)sulfonyl)phenyl)-3-(1-(2,3-dichlorophenyl)ethyl)urea] | 0.0189 µM | 0.053 | 19.5 µL/min/mg | 74.4 µL/min/mg | 1.3% | 0.46 | 1.97 | 2.96 h | 27.01 L/h/kg | 168.2 L/kg | 4.32 h |  |  |  |  |  | Food Intake Study (male C57BL/6J mice): 30 mg/kg po fasted - inh
C[C@H](NC(=O)Nc1ccc(S(=O)(=O)Cc2ccc(CO)cc2)cc1)c1cccc(Cl)c1Cl [H1060, (S)-1-(1-(2,3-dichlorophenyl)ethyl)-3-(4-((4-(hydroxymethyl)benzyl)sulfonyl)phenyl)urea] | 0.0408 µM | 0.28 | 40 µL/min/mg | 108.7 µL/min/mg | 18.8% | 4.13 | 8.25 | 1.37 h | 22.1 L/h/kg | 22.4 L/kg | 0.7 h | 0.0013 | 0.0019 | 0.0018 | 0.0012 |  | 
C[C@H](NC(=O)Nc1ccc(S(=O)(=O)Nc2ccc(CO)cc2)cc1)c1cccc(Cl)c1Cl [H1062, (S)-4-(3-(1-(2,3-dichlorophenyl)ethyl)ureido)-N-(4-(hydroxymethyl)phenyl) benzenesulfonamide] | 0.058 µM | 0.222 | 32.4 µL/min/mg | 67.2 µL/min/mg |  |  |  |  |  |  |  | 0.0012 | 0.0019 | 0.0012 | 0.0017 |  | 
C[C@H](NC(=O)Nc1ccc(S(=O)(=O)Cc2ccc3c(c2)CCN(C)C3)cc1)c1cccc(Cl)c1Cl [H1071, (S)-1-(1-(2,3-dichlorophenyl)ethyl)-3-(4-(((2-methyl-1,2,3,4-tetrahydroisoquinolin-6-yl)methyl)sulfonyl)phenyl)urea] | 0.0017 µM | 0.005 |  | 80.7 µL/min/mg and 152.5 µL/min/mg | 19.9% | 1.71 | 2.83 | 1.15 h | 8.28 L/h/kg | 21.1 L/kg | 1.77 h | 0.0089 | 0.0098 | 0.0087 | 0.0082 |  | Metabolic Stability Study D = dog [10]: 172.6 µL/min/mg and 160.7 µL/min/mg; Metabolic Stability Study R = rat [11]: 274 µL/min/mg and 188 µL/min/mg
CC(c1ccc2c(c1)CCNC2)S(=O)(=O)c1ccc(NC(=O)N[C@@H](C)c2cccc(Cl)c2Cl)cc1.Cl (stereo partly drawn) [H1080, 1-((S)-1-(2,3-dichlorophenyl)ethyl)-3-(4-((1-(1,2,3,4-tetrahydroisoquinolin-6-yl)ethyl)sulfonyl)phenyl)urea] | 0.0111 µM | 0.0226 | H < 10 M < 10 R = not reported D = not reported μL/min/mg | H < 10 M < 10 R = not reported D = not reported μL/min/mg |  |  |  |  |  |  |  |  |  |  |  | 3.57 | 
CC(NC(=O)Nc1ccc(S(=O)(=O)Cc2ccc3c(c2)CNC3)cc1)c1ccccc1.Cl (stereo not drawn) [H1148, 1-(4-((isoindolin-5-ylmethyl)sulfonyl)phenyl)-3-(1-phenylethyl)urea] | 0.0029 µM and 0.00313 µM | 0.01 | 22.2 µL/min/mg | 21.1 µL/min/mg |  |  |  | 1.37 h and 2.13 h | 96.7 L/h/kg and 164.5 L/h/kg |  |  | 0.088 | 0.077 | 0.055 |  | 12.52 | PK Vdiv ([12]; i.v.): 104.5 (R); L/Kg; PK t1/2iv ([12]; i.v.): 0.51 (R); h; PK F [13]: 15.7 (D) %; PK CLiv [13]: 0.7 L/h/kg; PK Vdiv [13]: 2.34 (D) L/Kg; PK t1/2iv [13]: 2.32 (D) h; PK CLpo [13]: 4.82 L/h/kg; PK Vdpo [13]: (M); 14.74 (D) L/Kg; PK t1/2po [13]: 2.34 (D) h
CC(NC(=O)Nc1ccc(S(=O)(=O)Cc2ccc3c(c2)CN(C)C3)cc1)c1ccccc1 (stereo not drawn) [H1194, 1-(4-(((2-methylisoindolin-5-yl)methyl)sulfonyl)phenyl)-3-(1-phenylethyl)urea] | 0.0168 µM | 0.0383 | 111.6 µL/min/mg | 64.2 µL/min/mg | 15.56 (M); % | 3.61 | 6.33 | 1.21 (M); h | 22.8 L/h/kg | 53.3 (M); L/Kg | 1.62 (M); h | 0.076 | 0.06 |  |  | 22.6 | Metabolic Stability Study D = dog [10]: 14 µL/min/mg; Metabolic Stability Study R = rat [11]: 56 µL/min/mg; PK F [12]: 11.9 (R); %; PK CLiv ([12]; i.v.): 5.68 L/h/kg; PK Vdiv ([12]; i.v.): 8.86 (R); L/Kg; PK t1/2iv ([12]; i.v.): 1.08 (R); h; PK CLpo ([12]; p.o.): 50.9 L/h/kg; PK Vdpo ([12]; p.o.): 232.2 (R); L/Kg; PK t1/2po ([12]; p.o.): 4.54 (R); h; PK F [13]: 54.07 (D) %; PK CLiv [13]: 1.00 L/h/kg; PK Vdiv [13]: 2.11 (D) L/Kg; PK t1/2iv [13]: 1.44 (D) h; PK CLpo [13]: 1.84 L/h/kg; PK Vdpo [13]: 4.05 (D) L/Kg; PK t1/2po [13]: 1.5 (D) h
